Experimental data: publication PMC9848257, “Design and synthesis of novel rigid dibenzo[b,f]azepines through ring closure technique as promising anticancer candidates against leukaemia and acting as selective topoisomerase II inhibitors and DNA intercalators” (Journal of Enzyme Inhibition and Medicinal Chemistry, 2023)

Legend:
KM12 = assay: NCI-60 one-dose screen, KM12; type: cell-based; settings: Homo sapiens; KM12, colon cancer; single dose 10 μM; read-out: Growth inhibition %
Description: (§1) Anti-proliferative effects of the counterparts 4a–g and 5a–g were screened against 60 human cancer cell lines, following the Developmental Therapeutics Program protocol, National Cancer Institute[35].
(§2) The anti-tumour activity of the fourteen synthesised congeners was investigated at the NCI against a panel of 60 cancer cell lines (NCI-60 Cell One-Dose Screen). The tested dibenzo[b,f]azepine derivatives were screened at a single dose level (10 μM), Table 1.

OVCAR-4 = assay: NCI-60 one-dose screen, OVCAR-4; type: cell-based; settings: Homo sapiens; OVCAR-4, ovarian cancer; single dose 10 μM; read-out: Growth inhibition %
Description: as §1, §2

K-562 = assay: NCI-60 one-dose screen, K-562; type: cell-based; settings: Homo sapiens, K562; K-562, leukaemia; single dose 10 μM; read-out: Growth inhibition %
Description: as §1, §2

UACC-257 = assay: NCI-60 one-dose screen, UACC-257; type: cell-based; settings: Homo sapiens; UACC-257, melanoma; single dose 10 μM; read-out: Growth inhibition %
Description: as §1, §2

SN12C = assay: NCI-60 one-dose screen, SN12C; type: cell-based; settings: Homo sapiens, renal cancer, single dose 10 μM, read-out: Growth inhibition %
Description: as §1, §2

LOX IMVI = assay: NCI-60 one-dose screen, LOX IMVI; type: cell-based; settings: Homo sapiens, melanoma, single dose 10 μM, read-out: Growth inhibition %
Description: as §1, §2

TK-10 = assay: NCI-60 one-dose screen, TK-10; type: cell-based; settings: Homo sapiens; TK-10, renal cancer; single dose 10 μM; read-out: Growth inhibition %
Description: as §1, §2

SK-MEL-5 = assay: NCI-60 one-dose screen, SK-MEL-5; type: cell-based; settings: Homo sapiens; SK-MEL-5, melanoma; single dose 10 μM; read-out: Growth inhibition %
Description: as §1, §2

MDA-MB-435 = assay: NCI-60 one-dose screen, MDA-MB-435; type: cell-based; settings: Homo sapiens; MDA-MB-435, melanoma; single dose 10 μM; read-out: Growth inhibition %
Description: as §1, §2

topoisomerase II = assay: Topoisomerase II inhibitory assay; type: biochemical; settings: for IC50: in vitro, doxorubicin co-assayed as reference; for Percentage of topoisomerase II inhibition: at the concentration of 100 µM (Figure 3A)
Description: Therefore, following the procedure reported by Patra et al., the topoisomerase II activity was evaluated.

IGROV1 = assay: NCI-60 one-dose screen, IGROV1; type: cell-based; settings: Homo sapiens, IGROV-1; IGROV1, ovarian cancer; single dose 10 μM; read-out: Growth inhibition %
Description: as §1, §2

NCI-H226 = assay: NCI-60 one-dose screen, NCI-H226; type: cell-based; settings: Homo sapiens; NCI-H226, non-small cell lung cancer; single dose 10 μM; read-out: Growth inhibition %
Description: as §1, §2

T-47D = assay: NCI-60 one-dose screen, T-47D; type: cell-based; settings: Homo sapiens, T47D, breast cancer, single dose 10 μM, read-out: Growth inhibition %
Description: as §1, §2

A549-ATCC = assay: NCI-60 one-dose screen, A549-ATCC; type: cell-based; settings: Homo sapiens, non-small cell lung cancer, single dose 10 μM, read-out: Growth inhibition %
Description: as §1, §2

NCI-H522 = assay: NCI-60 one-dose screen, NCI-H522; type: cell-based; settings: Homo sapiens; NCI-H522, non-small cell lung cancer; single dose 10 μM; read-out: Growth inhibition %
Description: as §1, §2

U251 = assay: NCI-60 one-dose screen, U251; type: cell-based; settings: Homo sapiens, U-251; U251, CNS cancer; single dose 10 μM; read-out: Growth inhibition %
Description: as §1, §2

SNB-19 = assay: NCI-60 one-dose screen, SNB-19; type: cell-based; settings: Homo sapiens; SNB-19, CNS cancer; single dose 10 μM; read-out: Growth inhibition %
Description: as §1, §2

SF-295 = assay: NCI-60 one-dose screen, SF-295; type: cell-based; settings: Homo sapiens; SF-295, CNS cancer; single dose 10 μM; read-out: Growth inhibition %
Description: as §1, §2

NCI/ADR-RES = assay: NCI-60 one-dose screen, NCI/ADR-RES; type: cell-based; settings: Homo sapiens, ovarian cancer, single dose 10 μM, read-out: Growth inhibition %
Description: as §1, §2

UACC-62 = assay: NCI-60 one-dose screen, UACC-62; type: cell-based; settings: Homo sapiens; UACC-62, melanoma; single dose 10 μM; read-out: Growth inhibition %
Description: as §1, §2

MDA-MB-468 = assay: NCI-60 one-dose screen, MDA-MB-468; type: cell-based; settings: Homo sapiens; MDA-MB-468, breast cancer; single dose 10 μM; read-out: Growth inhibition %
Description: as §1, §2

CAKI-1 = assay: NCI-60 one-dose screen, CAKI-1; type: cell-based; settings: Homo sapiens; CAKI-1, renal cancer; single dose 10 μM; read-out: Growth inhibition %
Description: as §1, §2

HCC-2998 = assay: NCI-60 one-dose screen, HCC-2998; type: cell-based; settings: Homo sapiens; HCC-2998, colon cancer; single dose 10 μM; read-out: Growth inhibition %
Description: as §1, §2

SR = assay: NCI-60 one-dose screen, SR; type: cell-based; settings: Homo sapiens, leukaemia, single dose 10 μM, read-out: Growth inhibition %
Description: as §1, §2

CCRF-CEM = assay: NCI-60 one-dose screen, CCRF-CEM; type: cell-based; settings: Homo sapiens, leukaemia, single dose 10 μM, read-out: Growth inhibition %
Description: as §1, §2

| Structure (SMILES) | inhibition at 10 µM (KM12) | inhibition at 10 µM (OVCAR-4) | inhibition at 10 µM (K-562) | inhibition at 10 µM (UACC-257) | inhibition at 10 µM (SN12C) | inhibition at 10 µM (LOX IMVI) | inhibition at 10 µM (TK-10) | inhibition at 10 µM (SK-MEL-5) | inhibition at 10 µM (MDA-MB-435) | IC50 (topoisomerase II) | inhibition at 10 µM (IGROV1) | inhibition at 10 µM (NCI-H226) | inhibition at 10 µM (T-47D) | inhibition at 10 µM (A549-ATCC) | inhibition at 10 µM (NCI-H522) | inhibition at 10 µM (SNB-19) | inhibition at 10 µM (SF-295) | inhibition at 10 µM (NCI/ADR-RES) | inhibition at 10 µM (UACC-62) | inhibition at 10 µM (MDA-MB-468) | also measured |
| --- | --- | --- | --- | --- | --- | --- | --- | --- | --- | --- | --- | --- | --- | --- | --- | --- | --- | --- | --- | --- | --- |
| C1=Cc2ccccc2N(c2nnc(-c3ccccc3)o2)c2ccccc21 [Compound 5a, 2-(5 h-Dibenzo[b,f]azepin-5-yl)-5-phenyl-1,3,4-oxadiazole] | < 10% | < 10% | 32.2% | 13.6% | < 10% | < 10% | 16.1% | < 10% | < 10% | 15.6 µM | < 10% | < 10% | < 10% | < 10% | < 10% | 33.2% | < 10% | < 10% | < 10% | 26.1% | inhibition at 10 µM (U251): 20.1%; inhibition at 10 µM (CAKI-1): < 10%; inhibition at 10 µM (HCC-2998): 33.4%; melting point: 209 to 211 °C; inhibition at 10 µM (SR): < 10%; inhibition at 10 µM (CCRF-CEM): 26.1% |
| Brc1ccc(-c2nnc(N3c4ccccc4C=Cc4ccccc43)o2)cc1 [Compound 5b, 2-(4-Bromophenyl)-5-(5H-dibenzo[b,f]azepin-5-yl)-1,3,4-oxadiazole] | 21.4% | 19.6% | 54.5% | < 10% | 24.2% | 38.8% | < 10% | 53.2% | < 10% | 10.2 µM | 21.6% | 28.3% | 21.5% | 29.8% | 26.3% | 15.6% | 30.4% | 23.4% | 32.2% | 17.8% | inhibition at 10 µM (U251): 47%; inhibition at 10 µM (CAKI-1): 31.9%; inhibition at 10 µM (HCC-2998): < 10%; melting point: 185 to 187 °C; inhibition at 10 µM (SR): 73%; inhibition at 10 µM (CCRF-CEM): 37.3% |
| Clc1ccc(-c2nnc(N3c4ccccc4C=Cc4ccccc43)o2)cc1 [Compound 5c, 2-(4-Chlorophenyl)-5-(5H-dibenzo[b,f]azepin-5-yl)-1,3,4-oxadiazole] | 18.5% | 22.1% | 54% | < 10% | 21.9% | 35.7% | < 10% | 48% | < 10% | 31.8 µM | 19.2% | 27.5% | < 10% | 20.3% | 22.2% | 11.2% | 29.6% | 14.5% | 31.3% | 16.7% | inhibition at 10 µM (U251): 42.6%; inhibition at 10 µM (CAKI-1): 28.5%; inhibition at 10 µM (HCC-2998): < 10%; melting point: 174 to 176 °C; inhibition at 10 µM (SR): 67.5%; inhibition at 10 µM (CCRF-CEM): 30.4% |
| Cc1ccc(-c2nnc(N3c4ccccc4C=Cc4ccccc43)o2)cc1 [Compound 5d, 2-(5 h-Dibenzo[b,f]azepin-5-yl)-5-(p-tolyl)-1,3,4-oxadiazole] | 13.1% | < 10% | 47.8% | < 10% | < 10% | 25.6% | < 10% | 34.6% | < 10% | 16.8 µM | < 10% | 21.6% | < 10% | 12.4% | 17.1% | < 10% | 22% | < 10% | 20.9% | < 10% | inhibition at 10 µM (U251): 31.8%; inhibition at 10 µM (CAKI-1): 16.2%; inhibition at 10 µM (HCC-2998): < 10%; melting point: 239 to 241 °C; inhibition at 10 µM (SR): 60.6%; inhibition at 10 µM (CCRF-CEM): 26.6% |
| O=[N+]([O-])c1ccc(-c2nnc(N3c4ccccc4C=Cc4ccccc43)o2)cc1 [Compound 5e, 2-(5 h-Dibenzo[b,f]azepin-5-yl)-5–(4-nitrophenyl)-1,3,4-oxadiazole] | < 10% | 21.8% | 25.3% | < 10% | < 10% | < 10% | < 10% | 13.7% | < 10% | 6.36 µM | < 10% | 13.7% | 18.4% | 16.5% | 15% | < 10% | < 10% | < 10% | 30% | 11.4% | Percentage of topoisomerase II inhibition (topoisomerase II): 89%; inhibition at 10 µM (CAKI-1): 29.7%; inhibition at 10 µM (HCC-2998): < 10%; melting point: 146 to 148 °C; inhibition at 10 µM (SR): 30.1%; inhibition at 10 µM (CCRF-CEM): < 10% |
| C1=Cc2ccccc2N(c2nnc(-c3ccc4ccccc4c3)o2)c2ccccc21 [Compound 5f, 2-(5 h-Dibenzo[b,f]azepin-5-yl)-5-(naphthalen-2-yl)-1,3,4-oxadiazole] | < 10% | < 10% | 34% | < 10% | 15.7% | 18.7% | 20.3% | 15.8% | < 10% | 9.56 µM | 29.1% | 21.4% | 18.3% | 28.2% | 24.2% | < 10% | 19.9% | 12.1% | 12.8% | 11.1% | Percentage of topoisomerase II inhibition (topoisomerase II): 88%; inhibition at 10 µM (U251): 32.3%; inhibition at 10 µM (CAKI-1): 33.1%; inhibition at 10 µM (HCC-2998): < 10%; melting point: 201 to 203 °C; inhibition at 10 µM (SR): 58.4%; inhibition at 10 µM (CCRF-CEM): 28.2% |
| C1=Cc2ccccc2N(c2nnc(Cc3ccccc3)o2)c2ccccc21 [Compound 5g, 2-Benzyl-5-(5H-dibenzo[b,f]azepin-5-yl)-1,3,4-oxadiazole] | < 10% | < 10% | 14.9% | 19.1% | < 10% | < 10% | 21.1% | < 10% | < 10% | 18.9 µM | < 10% | < 10% | 12% | 24.7% | < 10% | < 10% | < 10% | < 10% | 10.8% | 15.6% | inhibition at 10 µM (U251): 10.1%; inhibition at 10 µM (CAKI-1): < 10%; inhibition at 10 µM (HCC-2998): < 10%; melting point: 189 to 191 °C; inhibition at 10 µM (SR): 17.6%; inhibition at 10 µM (CCRF-CEM): 15.6% |
